Where two headings read alike, the source gives them in different places.

Data set [1] has as its target T1, LinB (Sphingobium indicum, UniProt D4Z2G1).
T1 construct: His-tagged, expressed in E. coli BL21(DE3), Ni-NTA purified; PDB 1MJ5 given for the docking model of the same protein
T1 sequence (D4Z2G1 2-296): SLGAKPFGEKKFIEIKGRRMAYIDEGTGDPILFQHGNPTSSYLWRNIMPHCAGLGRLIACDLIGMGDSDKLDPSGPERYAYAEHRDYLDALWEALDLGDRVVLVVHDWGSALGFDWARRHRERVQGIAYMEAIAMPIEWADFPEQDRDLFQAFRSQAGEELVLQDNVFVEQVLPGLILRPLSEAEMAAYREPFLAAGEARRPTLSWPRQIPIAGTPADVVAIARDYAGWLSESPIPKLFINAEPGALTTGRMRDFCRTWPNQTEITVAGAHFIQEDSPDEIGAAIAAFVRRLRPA
Kind of data set: stopped-flow tryptophan fluorescence after preincubation. The following applies: 100 mM glycine pH 8.6, 37 °C; slow irreversible inhibition, substrate E-3c. In kind it is biochemical.

Data set [2] addresses T2, DmmA (Lyngbya majuscula, UniProt Q6DND9).
T2 construct: gene curN; His-tagged, expressed in E. coli BL21(DE3), Ni-NTA purified; PDB 3U1T for the docking model of the same protein
T2 sequence (Q6DND9 25-341): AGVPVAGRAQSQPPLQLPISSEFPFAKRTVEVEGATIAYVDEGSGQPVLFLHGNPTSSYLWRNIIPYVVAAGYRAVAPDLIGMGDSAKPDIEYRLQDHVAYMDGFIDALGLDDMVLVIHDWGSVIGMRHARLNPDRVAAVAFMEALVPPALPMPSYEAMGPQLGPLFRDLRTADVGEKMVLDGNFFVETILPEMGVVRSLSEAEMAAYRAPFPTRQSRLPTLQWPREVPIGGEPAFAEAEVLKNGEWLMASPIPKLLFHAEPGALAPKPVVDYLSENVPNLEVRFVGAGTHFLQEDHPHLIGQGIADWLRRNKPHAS
The data set is described as follows: ITC progress curves. In kind it is biochemical. An excerpt:
ITC progress curves on DmmA | Z-isomer of substrate 3a binds to the enzyme’s active site and functions as a competitive inhibitor

Data set [3] addresses T1, LinB. The data set is described as follows: global fit of stopped-flow fluorescence/absorbance and ITC. The format is biochemical. The following applies: 100 mM glycine pH 8.6, 37 °C. An excerpt:
global fit of stopped-flow fluorescence/absorbance and ITC on LinB

For data set [4], the target named is T2, DmmA. The description is as above. The format is biochemical. The note with it: 100 mM glycine pH 8.6, 37 °C; enzyme-product complex after isomerization (EP2); read-out: K5. An excerpt: global fit of stopped-flow fluorescence/absorbance and ITC on DmmA
Substrate in the data set “ITC progress curves”: C[N+](C)(C)Cc1ccc(/N=N/c2cccc(CCl)c2)cc1
The data set is described as follows: ITC progress curves. The note with it: 100 mM glycine pH 8.6, 37 °C. In kind it is biochemical, Lyngbya majuscula.

For `C[N+](C)(C)Cc1ccc(/N=N\c2cccc(CCl)c2)cc1` (mixture of isomers) [3c, Z-3c], the “stopped-flow tryptophan fluorescence after preincubation” value on LinB [1] is “the inhibition effect of Z-3c was significantly more prominent in the case of LinB”.

The Ki is a measure of affinity in units of concentration, obtained from inhibition or displacement. Take `COCCOCCOc1ccc(/N=N\c2cccc(CCl)c2)cc1` [3a, Z-3a]: the Ki on DmmA [2] is 0.035 ± 0.001 µM.

For the molecule `C[N+](C)(C)Cc1ccc(/N=N/c2cccc(CO)c2)cc1` [3c, E-3c-OH], the Kd is 11.6 ± 0.1 µM at LinB [3] (enzyme-product complex (EP), read-out: K4) and 3.55 ± 1.01 µM on DmmA [4].

In the case of `C[N+](C)(C)Cc1ccc(/N=N/c2cccc(CCl)c2)cc1` [3c, E-3c], the Kd at LinB [3] (equilibrium dissociation constant of enzyme-substrate complex, read-out: K1) worked out at 7.39 ± 0.03 µM.

B1: DmmA (Lyngbya majuscula) (protein)
chain: AGVPVAGRAQSQPPLQLPISSEFPFAKRTVEVEGATIAYVDEGSGQPVLFLHGNPTSSYLWRNIIPYVVAAGYRAVAPDLIGMGDSAKPDIEYRLQDHVAYMDGFIDALGLDDMVLVIHDWGSVIGMRHARLNPDRVAAVAFMEALVPPALPMPSYEAMGPQLGPLFRDLRTADVGEKMVLDGNFFVETILPEMGVVRSLSEAEMAAYRAPFPTRQSRLPTLQWPREVPIGGEPAFAEAEVLKNGEWLMASPIPKLLFHAEPGALAPKPVVDYLSENVPNLEVRFVGAGTHFLQEDHPHLIGQGIADWLRRNKPHAS
notes: His-tagged, expressed in E. coli BL21(DE3), Ni-NTA purified; PDB 3U1T for the docking model of the same protein
A word on the Km: it is the substrate concentration at which the rate is half of its maximum. As usually defined, the kcat is the maximal rate divided by the concentration of active sites. Regarding B1, in “ITC progress curves”, the Km turned out to be 850 ± 40 µM and the kcat stood at 0.50 ± 0.03 s⁻¹.

Source of the values: paper PMC11301625, “Azobenzene-Based Photoswitchable Substrates for Advanced Mechanistic Studies of Model Haloalkane Dehalogenase Enzyme Family” (ACS Catalysis, 2024).
